The values that follow come from publication PMC9835529, “Investigation of Novel Quinoline–Thiazole Derivatives as Antimicrobial Agents: In Vitro and In Silico Approaches” (ACS Omega, 2022).

Converted amounts (≈) assume the structure as drawn.

One data set relates to E. coli ATCC 25922. Description: Antibacterial broth microdilution (CLSI M07-A9), MIC90. Format: cell-based. Conditions: for MIC90: Escherichia coli, ATCC25922. The source says: (§1) The broth microdilution procedure specified in the M07-A9 document of the Clinical and Laboratory Standards Institute (CLSI) was used for antibacterial study,[55] and the EDef 7.1 document published by EUCAST was used for the antifungal study.[56] For both activity studies, the detailed procedures were explained in previous studies.[57],[58]
A general note: In broth dilution the organism is exposed to a series of concentrations in liquid medium.

The test system of data set [1] is Escherichia coli ATCC 35218. Described as above. Format: cell-based. Conditions: E. coli ATCC 35218; for MIC90: Escherichia coli, ATCC35218.
From the text: as §1

Data set [2] has as its system Klebsiella pneumoniae NCTC 9633. The description is as above. Format: cell-based. Conditions: NCTC9633, K. pneumoniae NCTC 9633.
From the text: as §1

For data set [3], the system named is Salmonella typhimurium ATCC 13311. The data set is described as above. Format: cell-based. Conditions: Salmonella enterica; S. typhimurium ATCC 13311.
From the text: as §1

The test system of data set [4] is Staphylococcus aureus ATCC 6538. The data set is described as above. Conditions: Staphylococcus aureus, ATCC6538; S. aureus ATCC 6538; read-out: MIC90. Format: cell-based.
From the text: as §1

For data set [5], the system named is methicillin-resistant S. aureus (MRSA) (clinical isolate). Described as above. Format: cell-based. Conditions: for MIC90: Staphylococcus aureus.
From the text: as §1

Data set [6] deals with Candida albicans ATCC 24433. Description: Anticandidal broth microdilution (EUCAST EDef 7.1), MIC90. Conditions: Candida albicans, ATCC24433, C. albicans ATCC 24433; read-out: MIC90. Format: cell-based. From the text: (§2) E. coli (ATCC 35218), E. coli (ATCC 25922), S. aureus (ATCC 6538), methicillin-resistant S. aureus (MRSA) (clinical isolate), S. typhimurium (ATCC 13311), and K. pneumoniae (NCTC 9633) cells for antibacterial effect, and C. albicans (ATCC 24433), C. glabrata (ATCC 90030), C. krusei (ATCC 6258), and C. parapsilosis (ATCC 22019) for the antifungal effect of the final compounds were used to determine the MIC90 values. The broth microdilution procedure specified in the M07-A9 document of the Clinical and Laboratory Standards Institute (CLSI) was used for antibacterial study,[55] and the EDef 7.1 document published by EUCAST was used for the antifungal study.[56] For both activity studies, the detailed procedures were explained in previous studies.[57],[58]

The subject of the next data set is Candida krusei ATCC 6258. Described as above. Conditions: Pichia kudriavzevii, ATCC6258, C. krusei ATCC 6258; read-out: MIC90. Format: cell-based.
From the text: as §2

The subject of data set [7] is Candida parapsilosis ATCC 22019. The description is as above. Format: cell-based. Conditions: Lodderomyces parapsilosis, ATCC22019, C. parapsilosis ATCC 22019; read-out: MIC90.
From the text: as §2

A further data set concerns C. glabrata ATCC 90030. The data set is described as above. Format: cell-based, Candida glabrata. Conditions: Nakaseomyces glabratus, ATCC90030, C. glabrata ATCC 90030.
From the text: as §2

The test system of the next data set is NIH/3T3 cells. Description: Cytotoxicity on NIH/3T3 healthy cell line. Format: cell-based. Conditions: Mus musculus, NIH3T3, 24 h incubation. The protocol:
NIH/3T3 cells were incubated in Dulbecco’s modified Eagle’s medium (DMEM) (Sigma-Aldrich, St. Louis, MO), added with fetal calf serum, penicillin (100 IU/mL), streptomycin ([…]), and 7.5% NaHCO3 at 37 °C in a humidified atmosphere of 95% air and 5% CO2. NIH/3T3 cells were seeded into the 96-well plates at a density of 1 × 10^4 cells. After 24 h of incubating period, the culture media were removed, and test compounds were added. After 24 h of incubation period, colorimetric measurements were performed by a microplate reader (Biotek) at 540 nm. Inhibition % at all concentrations was determined using the formula below, and the IC50 values were calculated from a dose–response curve obtained by plotting the percentage inhibition versus the log concentration with the use of Microsoft Excel 2013.

Another data set deals with T1, E. coli DNA gyrase (Escherichia coli, UniProt P0AES4+P0AES6).
T1 construct: purchased TopoGen SKU TG2000G-3
T1 sequence (P0AES4 whole entry, one chain of several): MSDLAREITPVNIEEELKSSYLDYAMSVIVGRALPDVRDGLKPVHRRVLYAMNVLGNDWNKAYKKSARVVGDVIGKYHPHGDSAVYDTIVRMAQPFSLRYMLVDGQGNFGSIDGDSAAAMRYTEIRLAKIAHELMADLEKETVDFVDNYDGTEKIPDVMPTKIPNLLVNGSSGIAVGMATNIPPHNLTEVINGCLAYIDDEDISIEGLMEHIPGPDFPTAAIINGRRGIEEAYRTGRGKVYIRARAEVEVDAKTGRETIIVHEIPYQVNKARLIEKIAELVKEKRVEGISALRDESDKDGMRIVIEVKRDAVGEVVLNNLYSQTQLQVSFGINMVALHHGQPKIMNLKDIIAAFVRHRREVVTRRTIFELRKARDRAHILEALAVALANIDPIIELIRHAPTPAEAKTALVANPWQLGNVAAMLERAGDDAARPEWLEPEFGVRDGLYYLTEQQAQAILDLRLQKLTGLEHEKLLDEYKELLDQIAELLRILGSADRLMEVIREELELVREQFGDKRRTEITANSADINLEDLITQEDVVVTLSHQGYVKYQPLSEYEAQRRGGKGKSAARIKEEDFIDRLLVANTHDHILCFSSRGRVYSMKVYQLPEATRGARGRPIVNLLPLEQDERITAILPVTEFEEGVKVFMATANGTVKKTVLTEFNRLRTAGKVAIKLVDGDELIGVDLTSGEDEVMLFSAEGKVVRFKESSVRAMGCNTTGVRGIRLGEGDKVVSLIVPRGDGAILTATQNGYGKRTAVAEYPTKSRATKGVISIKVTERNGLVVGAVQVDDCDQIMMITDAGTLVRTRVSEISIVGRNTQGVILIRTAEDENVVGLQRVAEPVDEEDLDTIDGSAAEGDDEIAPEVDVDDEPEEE
The data set is described as follows: DNA-gyrase supercoiling inhibition by electrophoresis (TopoGen kit). Format: biochemical. Conditions: relaxed pHOT1 DNA. The method, then: DNA gyrase obtained from E. coli was used to detect the inhibition of the superhelix activity of DNA gyrase. The method was performed according to the kit protocol described by the supplier (SKU TG2000G-3, TopoGen). The detailed procedures were explained in the previous study.[62]

Data set [8] relates to Lanosterol 14α-demethylase (LMD, CYP51A1). The data set is described as follows: LDM (CYP51A1) inhibition by LC-MS-MS quantification of ergosterol level. Format: cell-based. Conditions: C. krusei. The method, then: The activity of the target compounds was tested against Candida strains via the determination of ergosterol production.
Ergosterol level was determined using the extract of total sterols from C. albicans (and its other species) following the method described by Breivik and Owades.[63] Quantification of the ergosterol level in this extract was carried out by the recently described method.[58],[64]−[66] According to these described studies, in the current work, compounds 4b, 4e, 4f, and 4h–m were undertaken to investigate their action mechanism. Thus, the LC-MS-MS-based method that quantifies the ergosterol level was applied. […]. Ergosterol quantity in negative control samples was regarded as 100%. All concentrations were analyzed in quadruplicate, and the results were expressed as mean ± standard deviation (SD).

For orientation: MIC90 means the lowest concentration that inhibits either 90% of growth or 90% of the strains tested, depending on the study. As usually defined, the IC50 is the concentration at which inhibition is half-maximal. Higher therefore signals weaker potency in that assay. Usually melting point stands for the temperature of the solid-liquid transition. `COc1ccc(-c2csc(N/N=C/c3cc4cc(OC)ccc4nc3Cl)n2)cc1` [4g] registered a melting point of 176 to 180 °C. For the same molecule, in the data set on E. coli ATCC 25922, the “times more effective than chloramphenicol (MIC90)” value is “four times” and the MIC90 was 3.91 µg/mL (≈ 9.2 µM). Further, in data set [1], the “times more effective than chloramphenicol (MIC90)” value is recorded as “four times” and the MIC90 was found to be 7.81 µg/mL (≈ 18.4 µM). Besides, in data set [2], the MIC90 was above 1000 µg/mL. In addition, in data set [3], the MIC90 is above 1000 µg/mL. The MIC90 in data set [4] stood at 7.81 µg/mL (≈ 18.4 µM). In data set [5], the “times more effective than the standard drug chloramphenicol (MIC90)” value is on record as 8 and the MIC90 was determined as 3.91 µg/mL (≈ 9.2 µM). For the same molecule, in data set [6], the MIC90 is above 1000 µg/mL. In addition, the MIC90 in the data set on Candida krusei ATCC 6258 came out at 31.2 µg/mL (≈ 73.5 µM). Besides, the MIC90 in [7] turned out to be 3.91 µg/mL (≈ 9.2 µM). The MIC90 against C. glabrata ATCC 90030 stood at 15.6 µg/mL (≈ 36.8 µM). In the data set on NIH/3T3 cells, this molecule showed an IC50 of 10.4 ± 0.22 µM. Further, the “DNA-gyrase inhibition (electrophoresis image)” value on E. coli DNA gyrase is recorded as “no peak belonging to the supercoiled DNA”.

The molecule `COc1ccc2nc(Cl)c(C=NNc3nc(-c4cccc5ccccc45)cs3)cc2c1` [4m] came in with a melting point of 174 to 179 °C. Moreover, in the data set with E. coli ATCC 25922, the “times more effective than chloramphenicol (MIC90)” value is “twice” and the MIC90 stood at 7.81 µg/mL (≈ 17.6 µM). In data set [1], the “times more effective than chloramphenicol (MIC90)” value is “four times” and the MIC90 worked out at 7.81 µg/mL (≈ 17.6 µM). The same molecule registered an MIC90 in [2] above 1000 µg/mL. The same molecule yielded an MIC90 in [3] above 1000 µg/mL. The MIC90 in data set [4] was found to be 7.81 µg/mL (≈ 17.6 µM). Further, in [5], the “times more effective than the standard drug chloramphenicol (MIC90)” value amounted to 4 and the MIC90 was 7.81 µg/mL (≈ 17.6 µM). Besides, in [6], the MIC90 was determined as 1.95 µg/mL (≈ 4.38 µM). Further, in the data set on Candida krusei ATCC 6258, the MIC90 was at most 0.06 µg/mL. Further, the MIC90 in [7] came out at 0.24 µg/mL (≈ 0.539 µM). Further, the MIC90 in the data set with C. glabrata ATCC 90030 was determined as 1.95 µg/mL (≈ 4.38 µM). Further, 34.5 ± 0.88 µM corresponded to half-maximal inhibition in the data set on NIH/3T3 cells (IC50). Moreover, the “DNA-gyrase inhibition (electrophoresis image)” value at E. coli DNA gyrase is reported as “no peak belonging to the supercoiled DNA”. In data set [8], the “effect on ergosterol production / LMD enzyme inhibition (in words)” value is “showed their anticandidal activity via LMD enzyme inhibition”. In addition, the “CYP51A1 Inhibition%” value in [8] (0.06 μg/mL) is given as 48.431 ± 2.036%. Besides, the “CYP51A1 Inhibition%” value in data set [8] (0.24 μg/mL) is listed as 61.289 ± 1.461%. In addition, the “CYP51A1 Inhibition%” value in data set [8] (0.98 μg/mL) is 70.574 ± 2.648%.
